The values below come from the supplement of paper PMC10307832.

Structures are written as SMILES.

One test concerns NCI-H441. Put plainly: relative viability (nuclei count vs DMSO), 5 days (fraction); higher = more cells survive. Particulars: first compound 0.8 µM. A digest of the protocol:
(§1)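 Dosing by pin tool came one day after lung cancer cell lines were seeded in 1536-well plates, using either one drug or a fixed anchor-drug dose plus five library-drug doses (not always all listed) in √10 steps. After 5 days, nuclei were counted on 4× images. Relative viability is treated-well nuclei count divided by vehicle-well nuclei count, and values are medians of duplicate plates.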
The compound `CCCCCCCCCCCC1=C(O)C(=O)C=C(O)C1=O` [Embelin] + CS(=O)(=O)N1CCN(Cc2cc3nc(-c4cccc5[nH]ncc45)nc(N4CCOCC4)c3s2)CC1 [Pictilisib] (partner 1 µM) showed a relative viability of 0.549.

In turn, `CCCCCCCCCCCC1=C(O)C(=O)C=C(O)C1=O` [Embelin] + NC(=O)Nc1cc(-c2cccc(F)c2)sc1C(=O)N[C@H]1CCCNC1 [AZD7762] (partner 0.2 µM) gave a relative viability of 1.24.

The same test, now with this note: first compound 2.53 µM.
With `CCCCCCCCCCCC1=C(O)C(=O)C=C(O)C1=O` [Embelin] + COc1cc2c(Oc3ccc(NC(=O)C4(C(=O)Nc5ccc(F)cc5)CC4)cc3F)ccnc2cc1OCCCN1CCOCC1 [Foretinib] (partner 0.25 µM), the relative viability came to 1.22.

`CCCCCCCCCCCC1=C(O)C(=O)C=C(O)C1=O` [Embelin] + CC(=O)Nc1cccc(-n2c(=O)n(C3CC3)c(=O)c3c(Nc4ccc(I)cc4F)n(C)c(=O)c(C)c32)c1 [Trametinib] (partner 0.02 µM) yielded a relative viability of 0.552.

As to `CCCCCCCCCCCC1=C(O)C(=O)C=C(O)C1=O` [Embelin] + CS(=O)(=O)N1CCN(Cc2cc3nc(-c4cccc5[nH]ncc45)nc(N4CCOCC4)c3s2)CC1 [Pictilisib] (partner 1 µM), the relative viability was 0.476.

With `CCCCCCCCCCCC1=C(O)C(=O)C=C(O)C1=O` [Embelin] + NC(=O)Nc1cc(-c2cccc(F)c2)sc1C(=O)N[C@H]1CCCNC1 [AZD7762] (partner 0.2 µM), the relative viability came out at 1.18.

In the case of `CCCCCCCCCCCC1=C(O)C(=O)C=C(O)C1=O` [Embelin] + Cc1nc(NC(=O)N2CCC[C@H]2C(N)=O)sc1-c1ccnc(C(C)(C)C(F)(F)F)c1 [Alpelisib] (partner 2 µM), the relative viability amounted to 0.933.

The same test, now with this note: first compound 8 µM.
For `CCCCCCCCCCCC1=C(O)C(=O)C=C(O)C1=O` [Embelin] + COc1cc2c(Oc3ccc(NC(=O)C4(C(=O)Nc5ccc(F)cc5)CC4)cc3F)ccnc2cc1OCCCN1CCOCC1 [Foretinib] (partner 0.25 µM), the relative viability is 1.09.

Take `CCCCCCCCCCCC1=C(O)C(=O)C=C(O)C1=O` [Embelin] + CC(=O)Nc1cccc(-n2c(=O)n(C3CC3)c(=O)c3c(Nc4ccc(I)cc4F)n(C)c(=O)c(C)c32)c1 [Trametinib] (partner 0.02 µM): the relative viability came out at 0.465.

`CCCCCCCCCCCC1=C(O)C(=O)C=C(O)C1=O` [Embelin] + CS(=O)(=O)N1CCN(Cc2cc3nc(-c4cccc5[nH]ncc45)nc(N4CCOCC4)c3s2)CC1 [Pictilisib] (partner 1 µM) had a relative viability of 0.505.

Turning to `CCCCCCCCCCCC1=C(O)C(=O)C=C(O)C1=O` [Embelin] + NC(=O)Nc1cc(-c2cccc(F)c2)sc1C(=O)N[C@H]1CCCNC1 [AZD7762] (partner 0.2 µM), the relative viability turned out to be 1.36.

The compound `CCCCCCCCCCCC1=C(O)C(=O)C=C(O)C1=O` [Embelin] + Cc1nc(NC(=O)N2CCC[C@H]2C(N)=O)sc1-c1ccnc(C(C)(C)C(F)(F)F)c1 [Alpelisib] (partner 2 µM) showed a relative viability of 0.847.

A further test has as its system NCI-H520. The description is as above. Particulars: first compound 0.08 µM. A digest of the protocol:
as §1
The compound `CCCCCCCCCCCC1=C(O)C(=O)C=C(O)C1=O` [Embelin] + COc1cc2c(Oc3ccc(NC(=O)C4(C(=O)Nc5ccc(F)cc5)CC4)cc3F)ccnc2cc1OCCCN1CCOCC1 [Foretinib] (partner 0.25 µM) showed a relative viability of 0.891.

The compound `CCCCCCCCCCCC1=C(O)C(=O)C=C(O)C1=O` [Embelin] + CC(=O)Nc1cccc(-n2c(=O)n(C3CC3)c(=O)c3c(Nc4ccc(I)cc4F)n(C)c(=O)c(C)c32)c1 [Trametinib] (partner 0.02 µM) showed a relative viability of 0.689.

With `CCCCCCCCCCCC1=C(O)C(=O)C=C(O)C1=O` [Embelin] + CS(=O)(=O)N1CCN(Cc2cc3nc(-c4cccc5[nH]ncc45)nc(N4CCOCC4)c3s2)CC1 [Pictilisib] (partner 1 µM), the relative viability is 0.346.

`CCCCCCCCCCCC1=C(O)C(=O)C=C(O)C1=O` [Embelin] + Cc1nc(NC(=O)N2CCC[C@H]2C(N)=O)sc1-c1ccnc(C(C)(C)C(F)(F)F)c1 [Alpelisib] (partner 2 µM) showed a relative viability of 1.05.

Staying with this test, now noted: first compound 0.8 µM.
As for `CCCCCCCCCCCC1=C(O)C(=O)C=C(O)C1=O` [Embelin] + COc1cc2c(Oc3ccc(NC(=O)C4(C(=O)Nc5ccc(F)cc5)CC4)cc3F)ccnc2cc1OCCCN1CCOCC1 [Foretinib] (partner 0.25 µM), the relative viability came to 0.891.

Turning to `CCCCCCCCCCCC1=C(O)C(=O)C=C(O)C1=O` [Embelin] + CC(=O)Nc1cccc(-n2c(=O)n(C3CC3)c(=O)c3c(Nc4ccc(I)cc4F)n(C)c(=O)c(C)c32)c1 [Trametinib] (partner 0.02 µM), the relative viability came to 0.72.

With `CCCCCCCCCCCC1=C(O)C(=O)C=C(O)C1=O` [Embelin] + CS(=O)(=O)N1CCN(Cc2cc3nc(-c4cccc5[nH]ncc45)nc(N4CCOCC4)c3s2)CC1 [Pictilisib] (partner 1 µM), the relative viability came out at 0.386.

`CCCCCCCCCCCC1=C(O)C(=O)C=C(O)C1=O` [Embelin] + Cc1nc(NC(=O)N2CCC[C@H]2C(N)=O)sc1-c1ccnc(C(C)(C)C(F)(F)F)c1 [Alpelisib] (partner 2 µM): the relative viability amounted to 1.06.

Still in this test, the particulars now being: first compound 2.53 µM.
The compound `CCCCCCCCCCCC1=C(O)C(=O)C=C(O)C1=O` [Embelin] + COc1cc2c(Oc3ccc(NC(=O)C4(C(=O)Nc5ccc(F)cc5)CC4)cc3F)ccnc2cc1OCCCN1CCOCC1 [Foretinib] (partner 0.25 µM) came in with a relative viability of 0.878.

As to `CCCCCCCCCCCC1=C(O)C(=O)C=C(O)C1=O` [Embelin] + CC(=O)Nc1cccc(-n2c(=O)n(C3CC3)c(=O)c3c(Nc4ccc(I)cc4F)n(C)c(=O)c(C)c32)c1 [Trametinib] (partner 0.02 µM), the relative viability amounted to 0.95.

Regarding `CCCCCCCCCCCC1=C(O)C(=O)C=C(O)C1=O` [Embelin] + CS(=O)(=O)N1CCN(Cc2cc3nc(-c4cccc5[nH]ncc45)nc(N4CCOCC4)c3s2)CC1 [Pictilisib] (partner 1 µM), the relative viability came to 0.418.

The compound `CCCCCCCCCCCC1=C(O)C(=O)C=C(O)C1=O` [Embelin] + Cc1nc(NC(=O)N2CCC[C@H]2C(N)=O)sc1-c1ccnc(C(C)(C)C(F)(F)F)c1 [Alpelisib] (partner 2 µM) had a relative viability of 0.896.

The same test, now with this note: first compound 8 µM.
Regarding `CCCCCCCCCCCC1=C(O)C(=O)C=C(O)C1=O` [Embelin] + COc1cc2c(Oc3ccc(NC(=O)C4(C(=O)Nc5ccc(F)cc5)CC4)cc3F)ccnc2cc1OCCCN1CCOCC1 [Foretinib] (partner 0.25 µM), the relative viability was 0.807.

The compound `CCCCCCCCCCCC1=C(O)C(=O)C=C(O)C1=O` [Embelin] + CC(=O)Nc1cccc(-n2c(=O)n(C3CC3)c(=O)c3c(Nc4ccc(I)cc4F)n(C)c(=O)c(C)c32)c1 [Trametinib] (partner 0.02 µM) came in with a relative viability of 0.705.

The compound `CCCCCCCCCCCC1=C(O)C(=O)C=C(O)C1=O` [Embelin] + CS(=O)(=O)N1CCN(Cc2cc3nc(-c4cccc5[nH]ncc45)nc(N4CCOCC4)c3s2)CC1 [Pictilisib] (partner 1 µM) registered a relative viability of 0.361.

In turn, `CCCCCCCCCCCC1=C(O)C(=O)C=C(O)C1=O` [Embelin] + Cc1nc(NC(=O)N2CCC[C@H]2C(N)=O)sc1-c1ccnc(C(C)(C)C(F)(F)F)c1 [Alpelisib] (partner 2 µM) showed a relative viability of 0.901.

The next test concerns NCI-H1563. The description is as above. Particulars: first compound 0.08 µM. An outline of the steps: as §1
In the case of `CCCCCCCCCCCC1=C(O)C(=O)C=C(O)C1=O` [Embelin] + COc1cc2c(Oc3ccc(NC(=O)C4(C(=O)Nc5ccc(F)cc5)CC4)cc3F)ccnc2cc1OCCCN1CCOCC1 [Foretinib] (partner 0.25 µM), the relative viability worked out at 0.932.
